Among the test systems are NCI-H23 lung; COLO 205 colon; HOP-92 NSCLC; HL-60(TB) leukemia; NCI/ADR-RES ovarian; MCF7 breast; HS 578T breast; SF-295 CNS; EKVX NSCLC; CCRF-CEM leukemia.
Holding throughout (test): growth of human tumour cells (NCI), 48 h

Where “and” joins values, the source holds several entries; their conditions need not be identical. Equal values may be shown once.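 Dose response: 5 concentrations. Exposure: 48 h. Format: 96-well plates. Endpoint: linear interpolation; highest concentration if not reached. At the GI50, growth is halved. Definition used: TGI = concentration required for complete inhibition of growth.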

For `CC(C)CCSC1=CC(=O)c2ccccc2C1=O`, the GI50 with NCI-H23 lung was 14.5 µM; in the experiment with COLO 205 colon, 10.9 µM; in the experiment with HOP-92 NSCLC, 1.2 µM; in the experiment on HL-60(TB) leukemia, 0.325 µM; with NCI/ADR-RES ovarian, 8.75 µM; in the experiment with MCF7 breast it was 1.42 µM. Also, the GI50 with HS 578T breast was 5.5 µM; with SF-295 CNS it was 14.7 µM; in the experiment on EKVX NSCLC, 4.5 µM; with CCRF-CEM leukemia, 0.215 µM. The TGI was 34.7 µM in the experiment on NCI-H23 lung; 22.9 µM in the experiment on COLO 205 colon; 2.62 µM in the experiment with HOP-92 NSCLC; 0.943 µM in the experiment with HL-60(TB) leukemia; 40.1 µM with NCI/ADR-RES ovarian; 3.63 µM in the experiment with MCF7 breast. Also, the TGI is 30.7 µM in the experiment with HS 578T breast, 42.2 µM in the experiment with SF-295 CNS, 16.6 µM with EKVX NSCLC and 0.62 µM in the experiment with CCRF-CEM leukemia.
With `CC(C)CC1C(=O)N2CCC[C@H]2C2(O)O[C@](NC(=O)C3C=C4c5cccc6[nH]c(Br)c(c56)C[C@H]4N(C)C3)(C(C)C)C(=O)N12` (some centres not stated), the GI50 in the experiment with NCI-H23 lung was 8.22 µM; in the experiment on HOP-92 NSCLC, 1.91 µM; in the experiment with HL-60(TB) leukemia, 3.8 µM; in the experiment on NCI/ADR-RES ovarian it was 8.29 µM; with MCF7 breast it was 4.92 µM; in the experiment on HS 578T breast it was 68.9 µM. For the same compound, the GI50 is 5.3 µM with SF-295 CNS, 3.7 µM in the experiment on EKVX NSCLC and 8.53 µM in the experiment on CCRF-CEM leukemia. For the same compound, the TGI was more than 100 µM in the experiment with NCI-H23 lung; more than 100 µM with COLO 205 colon; more than 100 µM with HOP-92 NSCLC; 29.3 µM with HL-60(TB) leukemia; more than 100 µM with NCI/ADR-RES ovarian; more than 100 µM in the experiment on MCF7 breast. Moreover, the TGI in the experiment with HS 578T breast, in the experiment on SF-295 CNS, with EKVX NSCLC and in the experiment with CCRF-CEM leukemia was more than 100 µM in each case.
`O=C1/C=C/[C@@H](O)[C@@H]2C[C@@H](O)C[C@H]2/C=C/CCC[C@H](CCc2ccc(C(F)(F)F)cc2)O1`: the GI50 was 0.236 µM in the experiment on NCI-H23 lung; 0.175 µM in the experiment with COLO 205 colon; 0.227 µM with HOP-92 NSCLC; 0.346 µM in the experiment on HL-60(TB) leukemia; 0.191 µM in the experiment on NCI/ADR-RES ovarian; 0.197 µM with MCF7 breast. Besides, the GI50 with HS 578T breast is 0.0602 µM; in the experiment with SF-295 CNS it was 0.188 µM; with EKVX NSCLC it was 0.252 µM; in the experiment with CCRF-CEM leukemia, 0.314 µM. Also, the TGI is 1.57 µM with NCI-H23 lung; 0.319 µM in the experiment with COLO 205 colon; 0.89 µM in the experiment on HOP-92 NSCLC; 2.74 µM in the experiment with HL-60(TB) leukemia; 9.58 µM with NCI/ADR-RES ovarian; 0.457 µM in the experiment on MCF7 breast. Further, the TGI with HS 578T breast was more than 27.2 µM; in the experiment with SF-295 CNS it was 47.8 µM; with EKVX NSCLC, 6.67 µM; in the experiment with CCRF-CEM leukemia it was 49 µM.
Turning to `CO/[N+]([O-])=C\C(=O)N/C=C/C(=O)O`, the TGI in the experiment on NCI-H23 lung, in the experiment on COLO 205 colon, with HOP-92 NSCLC, in the experiment on HL-60(TB) leukemia, in the experiment on NCI/ADR-RES ovarian and with MCF7 breast was more than 100 µM in each case. Further, the TGI in the experiment with HS 578T breast, with SF-295 CNS, with EKVX NSCLC and in the experiment on CCRF-CEM leukemia was more than 100 µM each time.
For `O=C(Nc1cccc(NC(=O)C(=O)C2CCC3=C(Sc4ccccc4N3)C2=O)n1)C(=O)C1CCC2=C(Sc3ccccc3N2)C1=O` (configuration not stated), the TGI in the experiment with NCI-H23 lung, in the experiment on COLO 205 colon, with HOP-92 NSCLC, in the experiment with HL-60(TB) leukemia, in the experiment with NCI/ADR-RES ovarian and in the experiment on MCF7 breast was more than 100 µM throughout. In addition, the TGI in the experiment with HS 578T breast, in the experiment with SF-295 CNS, with EKVX NSCLC and in the experiment with CCRF-CEM leukemia was more than 100 µM in each case.
In the case of `Cc1ncc(C(=O)Nc2ccc(CN3CCN(C)CC3)c(C(F)(F)F)c2)cc1C#Cc1cnc(N)c2cnccc12`, the GI50 in the experiment on NCI-H23 lung was 0.0873 µM; in the experiment on COLO 205 colon, 0.0276 µM; with HOP-92 NSCLC, 0.0299 µM; in the experiment on HL-60(TB) leukemia it was 0.0383 µM; in the experiment on NCI/ADR-RES ovarian, 6.68 µM; in the experiment with MCF7 breast it was 1.18 µM. The GI50 with HS 578T breast is 0.058 µM; with SF-295 CNS, 0.309 µM; with EKVX NSCLC, 0.358 µM; with CCRF-CEM leukemia it was 0.0906 µM. In addition, the TGI worked out at 10.5 µM in the experiment on NCI-H23 lung; 3.74 µM in the experiment on COLO 205 colon; 0.258 µM in the experiment with HOP-92 NSCLC; 1.03 µM in the experiment on HL-60(TB) leukemia; 23.9 µM in the experiment on NCI/ADR-RES ovarian; 3.69 µM in the experiment on MCF7 breast. The TGI with HS 578T breast turned out to be 0.696 µM; in the experiment with SF-295 CNS, 14.8 µM; with EKVX NSCLC, 12.9 µM; in the experiment on CCRF-CEM leukemia, 3.46 µM.
As for `O=C(CCCCCCCn1cc(-c2cccnc2)nn1)Nc1ccccc1-c1ccccc1`, the GI50 was 13.8 µM in the experiment on NCI-H23 lung; 1.92 µM in the experiment with COLO 205 colon; 31.8 µM in the experiment on HOP-92 NSCLC; 4.74 µM in the experiment with HL-60(TB) leukemia; 0.0688 µM in the experiment with NCI/ADR-RES ovarian; 3.36 µM with MCF7 breast. The GI50 with HS 578T breast was 7.22 µM; in the experiment with SF-295 CNS, 0.403 µM; in the experiment with EKVX NSCLC, 10.5 µM; with CCRF-CEM leukemia, 0.435 µM. Moreover, the TGI in the experiment with NCI-H23 lung was more than 100 µM; in the experiment with COLO 205 colon, 49.7 µM; with HOP-92 NSCLC, more than 100 µM; in the experiment with HL-60(TB) leukemia, 29.1 µM; with NCI/ADR-RES ovarian, 27.4 µM; in the experiment with MCF7 breast, 51.5 µM. Also, the TGI in the experiment on HS 578T breast, in the experiment with EKVX NSCLC and in the experiment with CCRF-CEM leukemia was more than 100 µM each time.
For the compound `C[C@@H](N)C1CCC(C(=O)Nc2ccncc2)CC1` (some centres not stated), the GI50 in the experiment with NCI-H23 lung was more than 100 µM; in the experiment on COLO 205 colon it was more than 100 µM; in the experiment on HOP-92 NSCLC, 0.855 µM; in the experiment with HL-60(TB) leukemia, more than 100 µM; in the experiment with NCI/ADR-RES ovarian, more than 100 µM; in the experiment on MCF7 breast, more than 100 µM. The GI50 in the experiment with HS 578T breast is 26.4 µM; with SF-295 CNS it was more than 100 µM; in the experiment with EKVX NSCLC it was 15 µM; in the experiment with CCRF-CEM leukemia, 51.2 µM. Besides, the TGI in the experiment on NCI-H23 lung, in the experiment on COLO 205 colon, with HOP-92 NSCLC, in the experiment with HL-60(TB) leukemia, in the experiment on NCI/ADR-RES ovarian and in the experiment on MCF7 breast was more than 100 µM each time. Besides, the TGI in the experiment on HS 578T breast, in the experiment on SF-295 CNS, with EKVX NSCLC and in the experiment on CCRF-CEM leukemia was more than 100 µM throughout.
Regarding `NC(=NCCCC1(c2ccccc2)CCCC1)Nc1ccc(Cl)cc1`, the GI50 was 1.69 µM with NCI-H23 lung; 1.69 µM in the experiment with COLO 205 colon; 1.36 µM in the experiment on HOP-92 NSCLC; 1.73 µM in the experiment on HL-60(TB) leukemia; 1.77 µM in the experiment with NCI/ADR-RES ovarian; 1.65 µM with MCF7 breast. Moreover, the GI50 was 2.19 µM with HS 578T breast, 1.62 µM in the experiment with SF-295 CNS, 1.87 µM with EKVX NSCLC and 2.18 µM with CCRF-CEM leukemia. The TGI in the experiment on NCI-H23 lung stood at 3.35 µM; with COLO 205 colon, 3.44 µM; with HOP-92 NSCLC it was 2.85 µM; with HL-60(TB) leukemia, 3.67 µM; in the experiment on NCI/ADR-RES ovarian, 3.34 µM; in the experiment on MCF7 breast, 3.19 µM. Moreover, the TGI is 5.03 µM in the experiment with HS 578T breast, 3.06 µM in the experiment with SF-295 CNS, 3.57 µM in the experiment on EKVX NSCLC and 6.29 µM with CCRF-CEM leukemia.
On to `COc1c2ccoc2cc2oc(=O)ccc12`, for which the TGI with NCI-H23 lung, in the experiment on COLO 205 colon, in the experiment on HOP-92 NSCLC, in the experiment on HL-60(TB) leukemia, with NCI/ADR-RES ovarian and in the experiment on MCF7 breast was more than 100 µM each time. For the same compound, the TGI in the experiment with HS 578T breast, in the experiment with SF-295 CNS, in the experiment on EKVX NSCLC and in the experiment on CCRF-CEM leukemia was more than 100 µM each time.
Consider `C[C@H](N)C(=O)N[C@@H]1[C@H]2C(=C(O)C[C@@H](O)[C@@H]2O)C(=O)O[C@]1(C)C(Cl)Cl`, for which the GI50 in the experiment with NCI-H23 lung is 0.226 µM; in the experiment with COLO 205 colon, 0.13 µM; in the experiment with HOP-92 NSCLC, 0.223 µM; in the experiment with HL-60(TB) leukemia, 0.254 µM and 0.149 µM; with EKVX NSCLC, 0.472 µM; in the experiment on CCRF-CEM leukemia, 0.108 µM and 0.087 µM. The TGI is 1.04 µM and 1.1 µM with NCI-H23 lung; 0.212 µM and 0.37 µM in the experiment with COLO 205 colon; 1.19 µM and 0.736 µM with HOP-92 NSCLC; 29.1 µM in the experiment on NCI/ADR-RES ovarian; 1.52 µM in the experiment on MCF7 breast; 0.634 µM with HS 578T breast. Moreover, the TGI in the experiment on SF-295 CNS was 1.31 µM; in the experiment on EKVX NSCLC, 4.66 µM and 2.23 µM; in the experiment with CCRF-CEM leukemia, 2.25 µM and 1.58 µM.
In the case of `C=CC(=O)N1C/C(=C\c2ccccc2)C(=O)/C(=C/c2ccccc2)C1`, the TGI was 5.43 µM in the experiment with NCI-H23 lung; 3.87 µM in the experiment on COLO 205 colon; 8.64 µM with HOP-92 NSCLC; 7.4 µM with HL-60(TB) leukemia; more than 27.1 µM with NCI/ADR-RES ovarian; 2.06 µM in the experiment on MCF7 breast. Also, the TGI in the experiment with HS 578T breast worked out at 14.8 µM; in the experiment with SF-295 CNS, 5.07 µM; with EKVX NSCLC, 9.42 µM; in the experiment with CCRF-CEM leukemia, 3.55 µM. For the same compound, the GI50 is 0.805 µM in the experiment with HL-60(TB) leukemia, 0.395 µM in the experiment on MCF7 breast, 2.22 µM in the experiment on HS 578T breast and 0.927 µM in the experiment with CCRF-CEM leukemia.
With `NC(=O)/C(=C\c1ccncc1)c1cccc2ccccc12`, the TGI in the experiment on NCI-H23 lung, in the experiment with COLO 205 colon, in the experiment on HOP-92 NSCLC, in the experiment with HL-60(TB) leukemia, in the experiment on NCI/ADR-RES ovarian and in the experiment on MCF7 breast was more than 100 µM each time. Also, the TGI in the experiment with HS 578T breast, in the experiment on SF-295 CNS, in the experiment on EKVX NSCLC and in the experiment on CCRF-CEM leukemia was more than 100 µM throughout.

These data come from PubChem BioAssay (NCI).
